In the assay the target is Casein kinase I isoform epsilon (Homo sapiens, UniProt P49674). The assay can be described thus: Kinase Assay: The kinase assay was performed in V-bottom 384-well plates. The final assay volume was 30 μl prepared from 15 μl additions of enzyme, substrates (fluoresceinated peptide FL-AHA-KRRRAL-PSER-VASLPGL-OH and ATP) and test compounds in assay buffer (20 mM HEPES pH 7.4, 30 mM MgCl2, 0.015% Brij35 and 4 mM DTT). The reaction was incubated at room temperature for 22 hours and terminated by adding 45 μl of 35 mM EDTA to each sample. The reaction mixture was analyzed on the Caliper LABCHIP®3000 (Caliper, Hopkinton, Mass.) by electrophoretic separation of the unphosphorylated substrate and phosphorylated product. […] The final concentration of reagents in the assay were 200 pM CK1ε or CK1δ, 50 μM ATP, 1.5 μM FL-AHA-KRRRAL-PSER-VASLPGL-OH, and 1.6% DMSO. Dose response curves were generated to determine the concentration required to inhibit 50% of the kinase activity (IC50). Compounds were dissolved at 10 mM in dimethylsulfoxide (DMSO) and evaluated at eleven concentrations. IC50 values were derived by non-linear regression analysis.
Sequence of Casein kinase I isoform epsilon (P49674 whole entry, canonical isoform): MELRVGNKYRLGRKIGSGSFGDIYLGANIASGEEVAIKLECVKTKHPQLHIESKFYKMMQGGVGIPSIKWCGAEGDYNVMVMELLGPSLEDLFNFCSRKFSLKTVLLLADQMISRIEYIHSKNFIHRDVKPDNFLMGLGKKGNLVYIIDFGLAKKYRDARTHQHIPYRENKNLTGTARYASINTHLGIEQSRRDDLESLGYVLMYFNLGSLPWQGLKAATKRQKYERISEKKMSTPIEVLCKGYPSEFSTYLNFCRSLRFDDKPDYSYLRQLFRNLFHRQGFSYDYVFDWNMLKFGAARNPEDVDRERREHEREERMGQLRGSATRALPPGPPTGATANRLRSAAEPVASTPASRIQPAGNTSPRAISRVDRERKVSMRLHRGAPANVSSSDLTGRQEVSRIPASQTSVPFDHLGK
For the molecule `NC(=O)c1c(-c2ccc(F)c(Cl)c2)nn2c1CN(C(=O)Nc1cc(F)cc(C(F)(F)F)c1)CC2`, the IC50 – broadly, the concentration at which inhibition is half-maximal – was less than 10 nM.
On to `NC(=O)c1c(-c2ccc(F)c(Cl)c2)nn2c1CN(C(=O)Nc1ccc3c(c1)S(=O)(=O)C=C3)CC2`, for which the IC50 is less than 10 nM.
Take `NC(=O)c1c(-c2ccc(Cl)c(F)c2)nn2c1CN(C(=O)Nc1ccc(Cl)c(Cl)c1)CC2`: the IC50 was less than 10 nM.
On to `Cc1nc(-c2ccc(NC(=O)N3CCn4nc(-c5ccc(F)c(Cl)c5)c(C(N)=O)c4C3)cc2)cs1`, for which the IC50 was less than 10 nM.
Then `Cc1nc(-c2ccc(NC(=O)N3CCn4nc(-c5cccc(F)c5)c(C(N)=O)c4C3)cc2)cs1`, with less than 10 nM; and `N#Cc1ccc(NC(=O)N2CCn3nc(-c4cnc(F)c(Cl)c4)c(C(N)=O)c3C2)cc1C(F)(F)F`, with less than 10 nM.
Regarding `NC(=O)c1c(-c2cccc(F)c2)nn2c1CN(C(=O)Nc1cc(Cl)cc(Cl)c1)CC2`, the IC50 is less than 10 nM.
Turning to `N#Cc1ccc(NC(=O)N2CCn3nc(-c4cccc(Cl)c4)c(C(N)=O)c3C2)cc1N1CCOCC1`, the IC50 is less than 10 nM.
On to `NC(=O)c1c(-c2ccc(F)c(Cl)c2)nn2c1CN(C(=O)Nc1ccc(F)cc1)CC2`, for which the IC50 is less than 10 nM.
`COc1cccc(-c2nn3c(c2C(N)=O)CN(C(=O)Nc2ccc(C#N)cc2)CC3)c1`: the half-inhibitory concentration (IC50) was less than 10 nM.
Take `NC(=O)c1c(-c2cccc(F)c2)nn2c1CN(C(=O)NC1C3CC4CC(C3)CC1C4)CC2` (stereo not drawn): the IC50 is less than 10 nM.
For `NC(=O)c1c(-c2cc(F)cc(Cl)c2)nn2c1CN(C(=O)Nc1cc(F)cc(C(F)(F)F)c1)CC2`, the IC50 was less than 10 nM.
Take `Cc1ncc(-c2ccc(NC(=O)N3CCn4nc(-c5cccc(F)c5)c(C(N)=O)c4C3)cc2)o1`: the IC50 was less than 10 nM.

The values are drawn from ChEMBL document CHEMBL5725928, “Substituted 4,5,6,7-tetrahydropyrazolo[1,5-A]pyrazine derivatives as casein kinase 1 D/E inhibitors” (2017).
